From patent US5916876A, “Peptide inhibitors of leukocyte adhesion” (Centocor, Inc., priority 1994, dated 1999)
Residues, ends and D or L forms follow the SMILES beside them.

molecular target: T1, human P-selectin (Homo sapiens, UniProt P16109); assay: Neutrophil adhesion to purified P-selectin immobilized on plastic wells (myeloperoxidase readout); type: cell-based; conditions: inhibition of binding of human neutrophils to human P-selectin; head: 0.3 μM peptide, text b193: 300 μM; read-out: % INHIBITION AT 0.3 μM PEPTIDE CONC.
T1 construct: from tissue; host or cells: outdated human platelet packs from a blood bank
T1 sequence (P16109 42-830): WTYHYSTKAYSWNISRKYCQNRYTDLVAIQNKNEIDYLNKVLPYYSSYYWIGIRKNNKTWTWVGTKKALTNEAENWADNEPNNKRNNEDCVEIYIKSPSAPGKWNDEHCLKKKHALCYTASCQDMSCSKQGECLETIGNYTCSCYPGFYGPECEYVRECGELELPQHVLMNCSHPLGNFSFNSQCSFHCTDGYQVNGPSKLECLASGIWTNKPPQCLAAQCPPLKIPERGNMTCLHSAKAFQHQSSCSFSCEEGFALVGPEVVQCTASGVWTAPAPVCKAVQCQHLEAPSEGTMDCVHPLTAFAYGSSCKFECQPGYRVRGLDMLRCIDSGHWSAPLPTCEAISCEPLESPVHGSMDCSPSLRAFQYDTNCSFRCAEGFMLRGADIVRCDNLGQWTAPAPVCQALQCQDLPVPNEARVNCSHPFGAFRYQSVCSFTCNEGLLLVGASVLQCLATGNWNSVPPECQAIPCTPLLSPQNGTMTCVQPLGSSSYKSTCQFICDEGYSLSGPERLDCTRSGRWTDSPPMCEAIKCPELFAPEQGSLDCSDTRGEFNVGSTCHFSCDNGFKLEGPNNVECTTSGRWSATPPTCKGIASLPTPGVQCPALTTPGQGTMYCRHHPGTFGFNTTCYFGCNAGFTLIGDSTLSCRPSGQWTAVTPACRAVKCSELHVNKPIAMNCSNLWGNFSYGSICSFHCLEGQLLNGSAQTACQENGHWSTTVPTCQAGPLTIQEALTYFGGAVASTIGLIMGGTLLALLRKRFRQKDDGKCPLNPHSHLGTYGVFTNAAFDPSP
Excerpt: Peptides can be screened for their ability to inhibit adhesion to cells, for example, neutrophil adhesion to purified P-selectin immobilized on plastic wells, using the assay described by Geng, et al., Nature 343, 757-760 (1990).
Human neutrophils are isolated from heparinized whole blood by density gradient centrifugation on Mono-Poly resolving media, Flow Laboratories. Neutrophil suspensions are greater than 98% pure and greater than 95% viable by trypan blue exclusion. For adhesion assays, neutrophils are suspended at a concentration of 2×10^6 cells/mL in Hanks' balanced salt solution containing 1.26 mM Ca^2+ and 0.81 mM Mg^2+ (HBSS, Gibco) with […] human serum albumin (HBSS/HSA). Adhesion assays are conducted in triplicate in 96-well microtiter plates, Corning, incubated at 4° C. overnight with 50 microliters of various protein solutions.
P-selectin is isolated from human platelet lysates by immunoaffinity chromatography on antibody S12-Sepharose™ and ion-exchange chromatography on a Mono-Q™ column (FLPC, Pharmacia Fine Chemicals), as follows.
Outdated human platelet packs (100 units) obtained from a blood bank and stored at 4° C. are pooled, adjusted to 5 mM EDTA at pH 7.5, centrifuged at 4,000 rpm for 30 minutes in 1 liter bottles, then washed three times with 1 liter of 0.1 M NaCl, 20 mM Tris pH 7.5 (TBS), 5 mM EDTA, 5 mM benzamidine.
The pellets are then resuspended in a minimum amount of wash buffer and made 1 mM in DIFP, then frozen in 50 mL screwtop tubes at -80° C. The frozen platelets are thawed and resuspended in 50 mL TBS, 5 mM benzamidine, 5 mM EDTA pH 7.5, 100 µM leupeptin. The suspension is frozen and thawed two times in a dry ice-acetone bath using a 600 mL lyophilizing flask, then homogenized in a glass/teflon mortar and pestle and made 1 mM in DIFP. The NaCl concentration is adjusted to 0.5 M with a stock solution of 4 M NaCl. After stirring the suspension at 4° C., it is centrifuged in polycarbonate tubes at 33,000 rpm for 60 minutes at 4° C. The supernatant (0.5 M NaCl wash) is removed and saved; this supernatant contains the soluble form of P-selectin. Care is taken not to remove the top part of the pellet with the supernatant. The pellets are then homogenized in extraction buffer (TBS, 5 mM benzamidine, 5 mM EDTA, pH 7.5, 100 μM leupeptin, 2% Triton X-100). After centrifugation at 19,500 rpm for 25 minutes at 4° C., the supernatant is removed. The extraction procedure is repeated with the pellet and the supernatant is combined with the first supernatant. The combined extracts, which contain the membrane form of P-selectin, are adjusted to 0.5 M NaCl.
The soluble fraction (0.5 M NaCl wash) and the membrane extract (also adjusted to 0.5 M NaCl) are absorbed with separate pools of the monoclonal antibody S12 (directed to P-selectin) previously coupled to Affigel (Biorad) at 5 mg/mL for 2 hours at 4° C. After letting the resins settle, the supernatants are removed. The S12 Affigel containing bound GMP-140 is then loaded into a column and washed overnight at 4° C. with 400 mL of 0.5 M NaCl, 20 mM Tris pH 7.5, 0.01% Lubrol PX.
Bound P-selectin is eluted from the S12 Affigel with 100 mL of 80% ethylene glycol, 1 mM MES pH 6.0, 0.01% Lubrol PX. Peak fractions with absorbance at 280 nm are pooled. Eluates are dialyzed against TBS with 0.05% Lubrol, then applied to a Mono Q column (FPLC from Pharmacia). The concentrated protein is step eluted with 2 M NaCl, 20 mM Tris pH 7.5 (plus 0.05% Lubrol PX for the membrane fraction). Peak fractions are dialyzed into TBS pH 7.5 (plus 0.05% Lubrol PX for the membrane fraction).
P-selectin is plated at 5 micrograms/mL and the control proteins: human serum albumin (Alb), platelet glycoprotein IIb/IIIa (IIb), von Willebrand factor (vWF), fibrinogen (FIB), thrombomodulin (TM), gelatin (GEL) or human serum (HS), are added at 50 micrograms/mL. […]

Question: `CC(C)C[C@H](NC(=O)[C@@H](NC(=O)[C@H](CCCCN)NC(=O)[C@H](CC(N)=O)NC(=O)[C@@H](N)CC(C)C)C(C)C)C(=O)N1CCC[C@H]1C(=O)N[C@@H](Cc1ccc(O)cc1)C(=O)N[C@@H](Cc1ccc(O)cc1)C(=O)N[C@@H](CO)C(=O)N[C@@H](CO)C(=O)N[C@@H](Cc1ccc(O)cc1)C(=O)N[C@@H](Cc1ccc(O)cc1)C(=O)N[C@H](C(N)=O)C(C)C` [SEQ ID NO: 3, Leu--Asn--Lys--Val--Leu--Pro--Tyr--Tyr--Ser--Ser--Tyr--Tyr--Val-NH2] (H-LNKVLPYYSSYYV-NH2) was tested. Which inhibition at 300 µM did it give?
Answer: The inhibition at 300 µM was 100%.

Question: For `CC(C)C[C@H](NC(=O)[C@@H](NC(=O)[C@@H](N)CCCCN)C(C)C)C(=O)N1CCC[C@H]1C(=O)N[C@@H](Cc1ccc(O)cc1)C(=O)N[C@@H](Cc1ccc(O)cc1)C(=O)N[C@@H](CO)C(=O)N[C@@H](CO)C(=O)N[C@@H](Cc1ccc(O)cc1)C(=O)N[C@@H](Cc1ccc(O)cc1)C(=O)N[C@H](C(N)=O)C(C)C` [SEQ ID NO: 5, Lys--Val--Leu--Pro--Tyr--Tyr--Ser--Ser--Tyr--Tyr--Val-NH2] (H-KVLPYYSSYYV-NH2), which inhibition at 300 µM is on record?
Answer: The inhibition at 300 µM was 102%.

Question: For `CC(C)C[C@H](NC(=O)[C@H](Cc1ccc(O)cc1)NC(=O)[C@@H](N)CC(=O)O)C(=O)N[C@@H](CC(N)=O)C(=O)N[C@@H](CCCCN)C(=O)N[C@H](C(=O)N[C@@H](CC(C)C)C(=O)N1CCC[C@H]1C(=O)N[C@@H](Cc1ccc(O)cc1)C(=O)N[C@@H](Cc1ccc(O)cc1)C(=O)N[C@@H](CO)C(=O)N[C@@H](CO)C(=O)N[C@@H](Cc1ccc(O)cc1)C(=O)N[C@@H](Cc1ccc(O)cc1)C(N)=O)C(C)C` [SEQ ID NO: 6, Asp--Tyr--Leu--Asn--Lys--Val--Leu--Pro--Tyr--Tyr--Ser--Ser--Tyr--Tyr-NH2] (H-DYLNKVLPYYSSYY-NH2), which inhibition at 300 µM is on record?
Answer: Its inhibition at 300 µM is 61%.

Question: Which inhibition at 300 µM does the source give for `CC(C)C[C@H](NC(=O)[C@@H](N)C(C)C)C(=O)N1CCC[C@H]1C(=O)N[C@@H](Cc1ccc(O)cc1)C(=O)N[C@@H](Cc1ccc(O)cc1)C(=O)N[C@@H](CO)C(=O)N[C@@H](CO)C(=O)N[C@@H](Cc1ccc(O)cc1)C(=O)N[C@@H](Cc1ccc(O)cc1)C(=O)N[C@H](C(N)=O)C(C)C` [SEQ ID NO: 10, Val--Leu--Pro--Tyr--Tyr--Ser--Ser--Tyr--Tyr--Val-NH2] (H-VLPYYSSYYV-NH2) here?
Answer: The inhibition at 300 µM was 66%.

Question: How did the inhibition at 300 µM turn out when `CC(C)C[C@H](NC(=O)[C@@H](NC(=O)[C@@H](N)CCCCN)C(C)C)C(=O)N1CCC[C@H]1C(=O)N[C@@H](Cc1ccc(O)cc1)C(=O)N[C@@H](Cc1ccc(O)cc1)C(=O)N[C@@H](CO)C(=O)N[C@@H](C)C(=O)N[C@@H](Cc1ccc(O)cc1)C(=O)N[C@@H](Cc1ccc(O)cc1)C(N)=O` [SEQ ID NO: 14, Lys--Val--Leu--Pro--Tyr--Tyr--Ser--Ala--Tyr--Tyr-NH2] (H-KVLPYYSAYY-NH2) was run?
Answer: The inhibition at 300 µM was 18%.

Question: Which inhibition at 300 µM does the source give for `CC(C)C[C@H](NC(=O)[C@@H](NC(=O)[C@@H](N)CCCCN)C(C)C)C(=O)N1CCC[C@H]1C(=O)N[C@@H](Cc1ccc(O)cc1)C(=O)NCC(=O)N[C@@H](CO)C(=O)N[C@@H](CO)C(=O)N[C@@H](Cc1ccc(O)cc1)C(=O)N[C@@H](Cc1ccc(O)cc1)C(N)=O` [SEQ ID NO: 19, Lys--Val--Leu--Pro--Tyr--Gly--Ser--Ser--Tyr--Tyr-NH2] (H-KVLPYGSSYY-NH2) here?
Answer: Its inhibition at 300 µM is 34%.

Question: `CC(C)[C@H](NC(=O)[C@@H](N)CCCCN)C(=O)N[C@@H](CCC(N)=O)C(=O)N1CCC[C@H]1C(=O)N[C@@H](Cc1ccc(O)cc1)C(=O)N[C@@H](Cc1ccc(O)cc1)C(=O)N[C@@H](CO)C(=O)N[C@@H](CO)C(=O)N[C@@H](Cc1ccc(O)cc1)C(=O)N[C@@H](Cc1ccc(O)cc1)C(N)=O` [SEQ ID NO: 22, Lys--Val--Gln--Pro--Tyr--Tyr--Ser--Ser--Tyr--Tyr-NH2] (H-KVQPYYSSYY-NH2) was tested. Which inhibition at 300 µM did it give?
Answer: The inhibition at 300 µM was 29%.

Question: How did the inhibition at 300 µM turn out when `CC[C@H](C)[C@H](NC(=O)[C@H](CO)NC(=O)[C@H](CC(N)=O)NC(=O)[C@H](CC(C)C)NC(=O)[C@H](Cc1ccc(O)cc1)NC(=O)[C@@H](N)CCC(=O)O)C(=O)N[C@@H](CC(C)C)C(=O)N[C@@H](CO)C(=O)N[C@@H](Cc1ccc(O)cc1)C(=O)N[C@@H](CO)C(=O)N1CCC[C@H]1C(=O)N[C@@H](CO)C(=O)N[C@@H](Cc1ccc(O)cc1)C(=O)N[C@@H](Cc1ccc(O)cc1)C(=O)N[C@@H](Cc1c[nH]c2ccccc12)C(N)=O` [SEQ ID NO: 23, Glu--Tyr--Leu--Asn--Ser--Ile--Leu--Ser--Tyr--Ser--Pro--Ser--Tyr--Tyr--Trp-NH2] (H-EYLNSILSYSPSYYW-NH2) was run?
Answer: The inhibition at 300 µM was 54%.
